Our source for the Activity and IC50 values is ChEMBL document CHEMBL2074114, “Inhibitory effect of novel oral hypoglycemic agent nateglinide (AY4166) on peptide transporters PEPT1 and PEPT2” (Eur J Pharmacol, 2000).

Molecules are shown by their SMILES.

What all share (type): functional, cell-based
The target of test [1] is T1, Solute carrier family 15 member 1 (Rattus norvegicus) (UniProt P51574).
T1 sequence (whole entry): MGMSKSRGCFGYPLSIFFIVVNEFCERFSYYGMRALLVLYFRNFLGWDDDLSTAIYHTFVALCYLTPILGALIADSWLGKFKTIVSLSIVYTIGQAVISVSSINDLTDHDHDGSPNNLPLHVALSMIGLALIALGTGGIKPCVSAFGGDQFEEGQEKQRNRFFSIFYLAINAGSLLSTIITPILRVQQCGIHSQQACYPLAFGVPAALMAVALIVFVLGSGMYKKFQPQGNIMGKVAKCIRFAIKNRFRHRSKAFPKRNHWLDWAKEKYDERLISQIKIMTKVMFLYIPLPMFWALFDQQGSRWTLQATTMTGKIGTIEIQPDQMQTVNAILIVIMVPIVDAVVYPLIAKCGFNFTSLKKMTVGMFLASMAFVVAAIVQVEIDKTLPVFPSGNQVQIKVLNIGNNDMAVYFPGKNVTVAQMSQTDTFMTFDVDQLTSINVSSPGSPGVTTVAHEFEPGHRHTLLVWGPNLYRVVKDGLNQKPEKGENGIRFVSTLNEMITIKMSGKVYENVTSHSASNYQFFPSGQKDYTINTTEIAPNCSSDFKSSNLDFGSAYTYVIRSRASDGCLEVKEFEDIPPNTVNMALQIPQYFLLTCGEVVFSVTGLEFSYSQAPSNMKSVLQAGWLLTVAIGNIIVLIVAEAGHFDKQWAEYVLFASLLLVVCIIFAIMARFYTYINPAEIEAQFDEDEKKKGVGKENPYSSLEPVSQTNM
Briefly: TP_TRANSPORTER: inhibition of Gly-Sar uptake (Gly-Sar: 20 uM, Tolbutamide: 1000uM) in PEPT1-expressing LLC-PK1 cells.

The target in test [2] is T2, Solute carrier family 15 member 2 (Rattus norvegicus) (UniProt Q63424).
T2 sequence (whole entry): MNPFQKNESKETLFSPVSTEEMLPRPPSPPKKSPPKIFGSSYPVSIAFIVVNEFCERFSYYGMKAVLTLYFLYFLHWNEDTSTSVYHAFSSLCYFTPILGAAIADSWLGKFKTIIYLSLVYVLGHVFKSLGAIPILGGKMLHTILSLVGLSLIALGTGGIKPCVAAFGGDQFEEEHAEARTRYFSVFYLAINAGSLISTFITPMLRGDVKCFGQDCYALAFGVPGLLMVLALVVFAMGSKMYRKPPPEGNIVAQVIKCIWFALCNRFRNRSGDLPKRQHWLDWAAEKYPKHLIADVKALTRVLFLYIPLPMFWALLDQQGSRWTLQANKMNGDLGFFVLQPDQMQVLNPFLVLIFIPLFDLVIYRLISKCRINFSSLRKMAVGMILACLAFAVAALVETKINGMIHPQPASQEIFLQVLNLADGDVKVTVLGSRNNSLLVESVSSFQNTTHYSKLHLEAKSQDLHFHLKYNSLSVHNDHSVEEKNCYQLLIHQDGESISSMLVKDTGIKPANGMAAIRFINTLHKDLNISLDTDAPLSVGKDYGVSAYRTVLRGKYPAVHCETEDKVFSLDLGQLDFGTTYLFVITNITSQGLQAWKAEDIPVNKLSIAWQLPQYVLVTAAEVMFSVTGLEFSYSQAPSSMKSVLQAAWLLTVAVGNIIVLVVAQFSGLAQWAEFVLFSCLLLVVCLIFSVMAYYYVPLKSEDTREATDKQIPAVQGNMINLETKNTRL
Briefly: TP_TRANSPORTER: inhibition of Gly-Sar uptake (Gly-Sar: 20 uM, Tolbutamide: 1000uM) in PEPT2-expressing LLC-PK1 cells.

For test [3], the target named is T2, Solute carrier family 15 member 2 (Rattus norvegicus). Briefly: TP_TRANSPORTER: inhibition of Gly-Sar uptake (Gly-Sar: 20 uM, Chlorpropamide: 1000uM) in PEPT2-expressing LLC-PK1 cells.
Test [4] has as its target T1, Solute carrier family 15 member 1 (Rattus norvegicus). As to the kind of experiment: TP_TRANSPORTER: inhibition of Gly-Sar uptake (Gly-Sar: 20 uM, Chlorpropamide: 1000uM) in PEPT1-expressing LLC-PK1 cells.
Test [5] has as its target T2, Solute carrier family 15 member 2 (Rattus norvegicus). Briefly: TP_TRANSPORTER: uptake in PEPT2-expressing LLC-PK1 cells.
The target of test [6] is T1, Solute carrier family 15 member 1 (Rattus norvegicus). As to the kind of experiment: TP_TRANSPORTER: uptake in PEPT1-expressing LLC-PK1 cells.
Test [7] has as its target T3, Solute carrier family 15 member 1 (Rattus norvegicus, UniProt P51574).
T3 sequence (P51574 whole entry): T1 sequence (whole entry)
Briefly: TP_TRANSPORTER: inhibition of Gly-Sar uptake (Gly-Sar: 20 uM) in PEPT1-expressing LLC-PK1 cells.

The target in test [8] is T4, Solute carrier family 15 member 2 (Rattus norvegicus, UniProt Q63424).
T4 sequence (Q63424 whole entry): T2 sequence (whole entry)
As to the kind of experiment: TP_TRANSPORTER: inhibition of Gly-Sar uptake (Gly-Sar: 20 uM) in PEPT2-expressing LLC-PK1 cells.

As for `CCCCNC(=O)NS(=O)(=O)c1ccc(C)cc1`, the Activity result in test [1] and in test [2] was “inhibitor [+]” in each case.
With `CCCNC(=O)NS(=O)(=O)c1ccc(Cl)cc1`, the Activity entry in test [3] and in test [4] was “inhibitor [+]” throughout.
Take `CC(C)[C@H]1CC[C@H](C(=O)N[C@H](Cc2ccccc2)C(=O)O)CC1` [NATEGLINIDE]: the Activity result in test [5] and in test [6] was “is not a substrate [-]” in each case. The IC50 in test [7] is 160 µM; in test [8], 70 µM.
